From ChEMBL document CHEMBL4011615, “Past, Current, and Future Developments of Therapeutic Agents for Treatment of Chronic Hepatitis B Virus Infection” (J Med Chem, 2017)
pIC50: −log10 of the molar value. One block for each molecule: values may come before it.

Legend:
[1] = Cytotoxicity against human HepG2(2.2.15) cells after 24 hrs by MTS assay; type: cell-based
Hepatitis B virus [2] = test: Antiviral activity against HBV infected in human HepG2(2.2.15) cells assessed as reduction in intracellular viral capsid level at antiviral IC50 by immunoblot method; type: functional
Hepatitis B virus [3] = test: Antiviral activity against HBV infected in human HepG2(2.2.15) cells assessed as inhibition of viral DNA level after 24 hrs by RT-PCR method; type: functional, cell-based; settings: HepG2 2.2.15, 24 h
Hepatitis B virus [4] = test: Antiviral activity against HBV infected in human HepG2(2.2.15) cells assessed as inhibition of extracellular viral DNA level; type: functional, cell-based
Hepatitis B virus [5] = test: Antiviral activity against HBV infected in human HepG2(2.2.15) cells assessed as inhibition of viral DNA level; type: functional, cell-based
[6] = Cytotoxicity against human HepG2(2.2.15) cells assessed as reduction in cell viability after 3 days by methylene blue assay; type: cell-based
Hepatitis B virus [7] = test: Antiviral activity against HBV infected in human HepG2(2.2.15) cells assessed as inhibition of viral DNA level after 6 days by Southern blot analysis; type: functional, cell-based; settings: HepG2 2.2.15, 144 h
Hepatitis B virus [8] = test: Antiviral activity against HBV infected in human HepG2(2.2.15) cells assessed as inhibition of viral RNA level; type: functional, cell-based
Hepatitis B virus [9] = test: Antiviral activity against HBV infected in human HepG2.N9 cells assessed as reduction in HBeAg level measured on day 8 post infection; type: functional, cell-based; settings: 192 h
Hepatitis B virus [10] = test: Antiviral activity against HBV infected in human HepAD38 cells; type: functional, cell-based
Hepatitis B virus [11] = test: Antiviral activity against HBV infected in human HepaRG cells assessed as reduction in viral infection after 16 hrs
Hepatitis B virus [12] = test: Inhibition of HBV C150-Bodipy labeled capsid (1 to 150 residues) C49A/C61A/C107A mutant expressed in Escherichia coli assessed as reduction in NaCl-induced capsid assembly at 10 uM preincubated for 15 mins followed by NaCl addition measured after 1 hr by fluorescence quenching assay relative to control
Hepatitis B virus [13] = test: Antiviral activity against HBV infected in human HuS-E/2 cells assessed as inhibition of viral mRNA level at 50 uM treated for 20 hrs measured after 7 days by RT-PCR method relative to control; type: functional
Hepatitis B virus [14] = test: Antiviral activity against HBV infected in human HepG2(2.2.15) cells assessed as inhibition of viral DNA level after 8 days by RT-PCR method; type: functional, cell-based; settings: HepG2 2.2.15, 192 h

SMILES: O=C(CNC(=O)c1ccc(F)cc1)Nc1ccc(Cl)nc1Cl
CC50 at 24 h [1]: 144 µM
inhibition (INH) (Hepatitis B virus [2]): 51%
pIC50 (Hepatitis B virus [3]): 6.06

SMILES: CC(=O)Oc1ccccc1C(=O)Nc1ncc([N+](=O)[O-])s1 [NITAZOXANIDE]
pIC50 (Hepatitis B virus [4]): 6.92

pIC50 (Hepatitis B virus [4]): 6.82
SMILES: O=C(Nc1ncc([N+](=O)[O-])s1)c1ccccc1O [TIZOXANIDE]

pIC50 (Hepatitis B virus [5]): 7.96
SMILES: COC(=O)C1=C(CN2CCOCC2)NC(c2nccs2)=N[C@H]1c1ccc(F)cc1Br

pIC50 (Hepatitis B virus [5]): 6.82
SMILES: CCOC(=O)C1=C(C)NC(c2ncccc2F)=N[C@@H]1c1ccc(F)cc1Cl

pIC50 (Hepatitis B virus [7]): 6.00
SMILES: O=C1OCc2c1cc1ccc3c(c1c2-c1ccc2c(c1)OCO2)OCO3 [HELIOXANTHIN]
CC50 at 72 h [6]: 6 µM

pIC50 (Hepatitis B virus [8]): 5.88
SMILES: CC(C)Cc1nc(-c2nccs2)sc1C(=O)NCc1ccc(F)cc1

SMILES: CC(=O)[C@]1(O)CC[C@@]2(O)[C@]1(C)[C@H](OC(=O)/C=C(\C)C(C)C)C[C@@H]1[C@@]3(C)CC[C@H](O)CC3=CC[C@]12O [CAUDATIN]
pIC50 (Hepatitis B virus [5]): 4.39

SMILES: O=c1[nH][nH]c(=O)c2c(-c3ccc4c(c3)OCO4)c3c4c(ccc3cc12)OCO4
CC50 at 72 h [6]: 9 µM

pIC50 (Hepatitis B virus [9]): 5.48
SMILES: CCCCC1=NC2(CCCC2)C(=O)N1Cc1ccc(-c2ccccc2-c2nnn[nH]2)cc1 [IRBESARTAN]

pIC50 (Hepatitis B virus [10]): 6.89
SMILES: COc1ccccc1/C(Br)=C(/NC(=O)c1ccc([N+](=O)[O-])cc1)C(=O)N1CCCCC1

pIC50 (Hepatitis B virus [11]): > 6.70
SMILES: C/C=C/C[C@@H](C)[C@@H](O)[C@H]1C(=O)N[C@@H](CC)C(=O)N(C)CC(=O)N(C)[C@@H](CC(C)C)C(=O)N[C@@H](C(C)C)C(=O)N(C)[C@@H](CC(C)C)C(=O)N[C@@H](C)C(=O)N[C@H](C)C(=O)N(C)[C@@H](CC(C)C)C(=O)N(C)[C@@H](CC(C)C)C(=O)N(C)[C@@H](C(C)C)C(=O)N1C [CYCLOSPORINE]

SMILES: O=C(Nc1ccc(F)c(Cl)c1)N1CCCN(c2c(Cl)cncc2Cl)CC1
inhibition (Hepatitis B virus [12]): > 50%

SMILES: O=C(O[C@@H]1Cc2c(O)cc(O)cc2O[C@@H]1c1cc(O)c(O)c(O)c1)c1cc(O)c(O)c(O)c1 [EPIGALOCATECHIN GALLATE]
inhibition at 50 µM (Hepatitis B virus [13]): > 80%

pIC50 (Hepatitis B virus [5]): 6.55
SMILES: CCOC(=O)C1=C(C)NC(c2c(F)cc(F)cc2F)=N[C@H]1c1ccc(F)cc1Cl

pIC50 (Hepatitis B virus [5]): 7.92
SMILES: CCOC(=O)C1=C(CN2CCOCC2)NC(c2nccs2)=NC1c1ccc(F)cc1Br (configuration not stated)

pIC50 (Hepatitis B virus [14]): 5.82
SMILES: CC(=O)Nc1ccc(-c2cc(C)c(=O)n(Cc3ccc(Cl)cc3)n2)cc1

pIC50 (Hepatitis B virus [5]): 6.60
SMILES: O=c1cc(-c2ccc(O)c(-c3c(O)cc4oc(-c5ccc(O)cc5)cc(=O)c4c3O)c2)oc2cc(O)cc(O)c12 [ROBUSTAFLAVONE]

pIC50 (Hepatitis B virus [14]): 6.85
SMILES: CCOC(=O)c1sc(-c2nc(C)cs2)nc1CC(C)C
